The source made the active and inactive calls. The calls are words filed in the database; no cut-off is given here.
How the values were obtained:
[1] = tested on: Mus musculus; experiment: Anticonvulsant activity in Carworth farms No.1 albino mouse assessed as protection against subcutaneous metrazole-induced seizures at 30 mg/kg, ip measured after 4 hrs; format: functional, organism-based; parameters: dose 30 mg/kg
[2] = tested on: Mus musculus; experiment: Neurotoxicity in Carworth farms No.1 albino mouse assessed as neurological impairment at 100 mg/kg, ip measured after 0.5 hrs; format: toxicity, organism-based; parameters: dose 100 mg/kg, route intraperitoneal; details: in vivo
[3] = tested on: Mus musculus; experiment: Neurotoxicity in Carworth farms No.1 albino mouse assessed as inability to grasp rotarod at 300 mg/kg, ip measured after 0.5 hrs; format: toxicity, organism-based; parameters: dose 300 mg/kg, route intraperitoneal; details: in vivo
[4] = tested on: Mus musculus; experiment: Anticonvulsant activity in Carworth farms No.1 albino mouse assessed as protection against maximum electroshock at 100 mg/kg, ip measured after 0.5 hrs; format: functional, organism-based; parameters: dose 100 mg/kg
[5] = tested on: Mus musculus; experiment: Anticonvulsant activity in Carworth farms No.1 albino mouse assessed as protection against subcutaneous metrazole-induced seizures at 300 mg/kg, ip measured after 4 hrs; format: functional, organism-based; parameters: dose 300 mg/kg
[6] = tested on: Mus musculus; experiment: Anticonvulsant activity in Carworth farms No.1 albino mouse assessed as protection against maximum electroshock at 30 mg/kg, ip measured after 4 hrs; format: functional, organism-based; parameters: dose 30 mg/kg
[7] = tested on: Mus musculus; experiment: Neurotoxicity in Carworth farms No.1 albino mouse assessed as neurological impairment at 100 mg/kg, ip measured after 1 hr; format: toxicity, organism-based; parameters: dose 100 mg/kg, route intraperitoneal; details: in vivo
[8] = tested on: Rattus norvegicus; experiment: Toxicity in Sprague-Dawley rat assessed as body weight change in protected animals at 600 mg/kg, ip measured after 0.5 hrs; format: organism-based; parameters: dose 600 mg/kg, route intraperitoneal; details: in vivo
[9] = tested on: Rattus norvegicus; experiment: Neurotoxicity in Sprague-Dawley rat assessed as neurological impairment at 30 mg/kg, po measured after 1 hr; format: toxicity, organism-based; parameters: dose 30 mg/kg, route oral; details: in vivo
[10] = tested on: Rattus norvegicus; experiment: Neurotoxicity in Sprague-Dawley rat assessed as neurological impairment at 30 mg/kg, po measured after 2 hrs; format: toxicity, organism-based; parameters: dose 30 mg/kg, route oral; details: in vivo
[11] = tested on: Mus musculus; experiment: Anticonvulsant activity in Carworth farms No.1 albino mouse assessed as protection against subcutaneous metrazole-induced seizures at 30 mg/kg, ip measured after 0.5 hrs; format: functional, organism-based; parameters: dose 30 mg/kg
[12] = tested on: Rattus norvegicus; experiment: Anticonvulsant activity in Sprague-Dawley rat assessed as protection against maximum electroshock at 30 mg/kg, po measured after 0.25 hrs; format: functional, organism-based; parameters: dose 30 mg/kg
[13] = tested on: Mus musculus; experiment: Anticonvulsant activity in ip dosed Carworth farms No.1 albino mouse assessed as protection against 6 Hz electric current-induced seizure measured after 0.25 hrs; format: functional
[14] = tested on: Rattus norvegicus; experiment: Toxicity in Sprague-Dawley rat assessed as mortality at 600 mg/kg, ip measured after 0.5 hrs; format: organism-based; parameters: dose 600 mg/kg, route intraperitoneal; details: in vivo
[15] = tested on: Mus musculus; experiment: Anticonvulsant activity in Carworth farms No.1 albino mouse assessed as protection against maximum electroshock at 30 mg/kg, ip measured after 0.5 hrs; format: functional, organism-based; parameters: dose 30 mg/kg
[16] = tested on: Mus musculus; experiment: Anticonvulsant activity in Carworth farms No.1 albino mouse assessed as protection against subcutaneous metrazole-induced seizures at 300 mg/kg, ip measured after 0.5 hrs; format: functional, organism-based; parameters: dose 300 mg/kg
[17] = tested on: Mus musculus; experiment: Anticonvulsant activity in Carworth farms No.1 albino mouse assessed as protection against maximum electroshock at 300 mg/kg, ip measured after 4 hrs; format: functional, organism-based; parameters: dose 300 mg/kg
[18] = tested on: Mus musculus; experiment: Neurotoxicity in Carworth farms No.1 albino mouse assessed as neurological impairment at 100 mg/kg, ip measured after 4 hrs; format: toxicity, organism-based; parameters: dose 100 mg/kg, route intraperitoneal; details: in vivo
[19] = tested on: Rattus norvegicus; experiment: Anticonvulsant activity in Sprague-Dawley rat assessed as protection against maximum electroshock at 30 mg/kg, po measured after 0.5 hrs; format: functional, organism-based; parameters: dose 30 mg/kg
[20] = tested on: Mus musculus; experiment: Anticonvulsant activity in Carworth farms No.1 albino mouse assessed as protection against maximum electroshock at 100 mg/kg, ip measured after 4 hrs; format: functional, organism-based; parameters: dose 100 mg/kg
[21] = tested on: Mus musculus; experiment: Neurotoxicity in Carworth farms No.1 albino mouse assessed as neurological impairment at 300 mg/kg, ip measured after 4 hrs; format: toxicity, organism-based; parameters: dose 300 mg/kg, route intraperitoneal; details: in vivo
[22] = tested on: Mus musculus; experiment: Anticonvulsant activity in Carworth farms No.1 albino mouse assessed as protection against subcutaneous metrazole-induced seizures at 100 mg/kg, ip measured after 4 hrs; format: functional, organism-based; parameters: dose 100 mg/kg
[23] = species: Mus musculus; experiment: Anticonvulsant activity in electric shock-induced Carworth farms No.1 albino mouse assessed as time of peak effect; format: functional
[24] = tested on: Mus musculus; experiment: Anticonvulsant activity in Carworth farms No.1 albino mouse assessed as protection against 6 Hz electric current-induced seizure at 100 mg/kg, ip measured after 0.25 hrs; format: functional, organism-based; parameters: dose 100 mg/kg
[25] = tested on: Rattus norvegicus; experiment: Anticonvulsant activity in Sprague-Dawley rat assessed as protection against maximum electroshock at 30 mg/kg, po measured after 2 hrs; format: functional, organism-based; parameters: dose 30 mg/kg
[26] = tested on: Mus musculus; experiment: Anticonvulsant activity in Carworth farms No.1 albino mouse assessed as protection against subcutaneous metrazole-induced seizures at 100 mg/kg, ip measured after 0.5 hrs; format: functional, organism-based; parameters: dose 100 mg/kg
[27] = tested on: Mus musculus; experiment: Anticonvulsant activity in ip dosed Carworth farms No.1 albino mouse assessed as protection against maximum electroshock; format: functional
[28] = tested on: Mus musculus; experiment: Anticonvulsant activity in Carworth farms No.1 albino mouse assessed as protection against maximum electroshock at 300 mg/kg, ip measured after 0.5 hrs; format: functional, organism-based; parameters: dose 300 mg/kg
[29] = tested on: Rattus norvegicus; experiment: Neurotoxicity in Sprague-Dawley rat assessed as neurological impairment at 30 mg/kg, po measured after 0.25 hrs; format: toxicity, organism-based; parameters: dose 30 mg/kg, route oral; details: in vivo
[30] = tested on: Mus musculus; experiment: Neurotoxicity in Carworth farms No.1 albino mouse assessed as neurological impairment at 100 mg/kg, ip measured after 2 hr; format: toxicity, organism-based; parameters: dose 100 mg/kg, route intraperitoneal; details: in vivo
[31] = species: Mus musculus; experiment: Anticonvulsant activity in maximum electroshock-induced Carworth farms No.1 albino mouse assessed as time of peak effect; format: functional
[32] = tested on: Mus musculus; experiment: Anticonvulsant activity in Carworth farms No.1 albino mouse assessed as protection against 6 Hz electric current-induced seizure at 100 mg/kg, ip measured after 2 hrs; format: functional, organism-based; parameters: dose 100 mg/kg
[33] = tested on: Rattus norvegicus; experiment: Neurotoxicity in Sprague-Dawley rat assessed as neurological impairment at 30 mg/kg, po measured after 0.5 hrs; format: toxicity, organism-based; parameters: dose 30 mg/kg, route oral; details: in vivo
[34] = tested on: Mus musculus; experiment: Anticonvulsant activity in Carworth farms No.1 albino mouse assessed as protection against 6 Hz electric current-induced seizure at 100 mg/kg, ip measured after 0.5 hrs; format: functional, organism-based; parameters: dose 100 mg/kg
[35] = tested on: Rattus norvegicus; experiment: Anticonvulsant activity in Sprague-Dawley rat assessed as protection against pilocarpine-induced status at 600 mg/kg, ip measured after 0.5 hrs; format: functional, organism-based; parameters: dose 600 mg/kg
[36] = tested on: Mus musculus; experiment: Neurotoxicity in Carworth farms No.1 albino mouse assessed as neurological impairment at 30 mg/kg, ip measured after 0.5 hrs; format: toxicity, organism-based; parameters: dose 30 mg/kg, route intraperitoneal; details: in vivo
[37] = tested on: Mus musculus; experiment: Neurotoxicity in Carworth farms No.1 albino mouse assessed as neurological impairment at 100 mg/kg, ip measured after 0.25 hrs; format: toxicity, organism-based; parameters: dose 100 mg/kg, route intraperitoneal; details: in vivo
[38] = tested on: Mus musculus; experiment: Neurotoxicity in Carworth farms No.1 albino mouse assessed as neurological impairment at 30 mg/kg, ip measured after 4 hrs; format: toxicity, organism-based; parameters: dose 30 mg/kg, route intraperitoneal; details: in vivo
[39] = tested on: Rattus norvegicus; experiment: Toxicity in Sprague-Dawley rat assessed as body weight change in unprotected animal at 600 mg/kg, ip measured after 0.5 hrs; format: organism-based; parameters: dose 600 mg/kg, route intraperitoneal; details: in vivo
[40] = tested on: Mus musculus; experiment: Anticonvulsant activity in ip dosed Carworth farms No.1 albino mouse assessed as protection against subcutaneous metrazole-induced seizures; format: functional
[41] = tested on: Rattus norvegicus; experiment: Anticonvulsant activity in Sprague-Dawley rat assessed as protection against maximum electroshock at 30 mg/kg, po measured after 1 hr; format: functional, organism-based; parameters: dose 30 mg/kg
[42] = Neurotoxicity in ip dosed Carworth farms No.1 albino mouse assessed as inability to grasp rotarod measured after 0.25 hrs; format: toxicity, organism-based; details: in vivo
[43] = tested on: Mus musculus; experiment: Anticonvulsant activity in Carworth farms No.1 albino mouse assessed as protection against 6 Hz electric current-induced seizure at 100 mg/kg, ip measured after 1 hrs; format: functional, organism-based; parameters: dose 100 mg/kg
[44] = tested on: Mus musculus; experiment: Anticonvulsant activity in Carworth farms No.1 albino mouse assessed as protection against 6 Hz electric current-induced seizure at 100 mg/kg, ip measured after 4 hrs; format: functional, organism-based; parameters: dose 100 mg/kg
[45] = tested on: Rattus norvegicus; experiment: Anticonvulsant activity in Sprague-Dawley rat assessed as protection against maximum electroshock at 30 mg/kg, po measured after 4 hrs; format: functional, organism-based; parameters: dose 30 mg/kg
[46] = tested on: Rattus norvegicus; experiment: Neurotoxicity in Sprague-Dawley rat assessed as neurological impairment at 30 mg/kg, po measured after 4 hrs; format: toxicity, organism-based; parameters: dose 30 mg/kg, route oral; details: in vivo

O=C1NC(=O)[C@H](c2ccccc2)N2CCCC[C@H]12
Activity [1]: inactive | Activity [2]: Toxic | Activity [3]: Toxic | Activity [4]: Active | Activity [5]: inactive | Activity [6]: inactive | Activity [7]: Non-toxic | Activity [8]: -30 g | Activity [9]: Non-toxic | Activity [10]: Non-toxic | Activity [11]: inactive | Activity [12]: inactive | ED50 [13]: 32.3 mg/kg | Activity [14]: Toxic | Activity [15]: inactive | Activity [16]: Active | Activity [17]: inactive | Activity [18]: Non-toxic | Activity [19]: inactive | Activity [20]: inactive | Activity [21]: Non-toxic | Activity [22]: inactive | Time [23]: 0.25 h | Activity [24]: Active | Activity [25]: inactive | Activity [26]: inactive | ED50 [27]: 95.7 mg/kg | Activity [28]: Active | Activity [29]: Non-toxic | Activity [30]: Non-toxic | Time [31]: 0.5 h | Activity [32]: inactive | Activity [33]: Non-toxic | Activity [34]: Active | Activity [35]: inactive | Activity [36]: Non-toxic | Activity [37]: Non-toxic | Activity [38]: Non-toxic | Activity [39]: -31 g | ED50 [40]: 99.2 mg/kg | Activity [41]: inactive | TD50 at 0.25 h [42]: 151 mg/kg | Activity [43]: inactive | Activity [44]: inactive | Activity [45]: inactive | Activity [46]: Non-toxic

Source: ChEMBL document CHEMBL1944578, “Synthesis and anticonvulsant activity of novel 2,6-diketopiperazine derivatives. Part 2: Perhydropyrido[1,2-a]pyrazines” (Eur J Med Chem, 2012)
